For one test, the system named is HIV. Description: microbe, parasite or virus in culture. It is filed as cell-based. The settings on record: XTT, 450 nm, * (n) = average of n assays, read-out: Antiviral Activity IC90. The protocol:
In addition, the compounds described in the present application may be tested using an antiviral cell culture assay as described in Weislow, O.S., J. of National Cancer Institute, 81(8), pages 577-586 (Apr. 19, 1989) herein incorporated by reference.
This assay compares the viability of HIV-infected cells in a cell culture medium relative to the viability of such cells in the presence of a test compound. The concentration of test compound necessary to inhibit 90% of the virus is then measured using the viability of the cells as an indicator of viral inhibition. This assay is carried out using cell lines that are sensitive to the lyric effects of HIV infection.
Specifically, this assay utilizes the metabolic reduction of a tetrazolium reagent, 2,3-bis[2-methoxy-4-nitro-5-sulfophenyl]-5-[(phenylamino)carbonyl]-2H-tetrazolium hydroxide (XTT). In the presence of a viable cell, the tetrazolium reagent, XTT, is reduced to provide XTT formazan which may be quantified using colorimetric determination (at 450 nm). The intensity of the chromogenic signal is directly proportional to the concentration of the XTT formazan, thus providing a measure of the quantity of viable cells.

A further test deals with T1, HIV-1 Protease (Human immunodeficiency virus type 1 group M subtype B, UniProt P04585).
T1 construct: HIV-1 Protease
The experiment in a line: biochemical. As to conditions: for inhibition at 0.00016 µg/mL: read-out: % inhibition at the stated concentration (ICx (0.16)); for IC50: read-out: Fluorescence Assay IC50 (converted). The protocol:
These compounds may be assayed using two assays: (1) an enzyme inhibition assay, and (2) an antiviral cell culture assay.
This assay is described in detail in published European Patent Application (EPA) 0 526 009, herein incorporated by reference. Using this assay, a number of the compounds, prepared above, were assayed for HIV protease inhibitory activity.
The assay is unable to test compounds at less than a concentration of 0.16 ng/mL.

The mark [1] stands for this setting: Human immunodeficiency virus 1, concentration inhibiting 90% of the viral-induced toxicity.
[2] abbreviates: concentration inhibiting 50% of the enzyme, * = calculated average with n number of assays.

Where two headings read alike, the source gives them in different places.

In general, IC90 refers to the concentration at which the effect reaches the 90% level. As a reminder, the IC50 is the concentration at which inhibition is half-maximal. Take `CC(C)(C)NC(=O)[C@@H]1C[C@@H]2SCC[C@@H]2CN1C[C@@H](O)[C@H](Cc1ccccc1)NC(=O)[C@@H](CS(=O)(=O)c1ccc(F)cc1)NC(=O)C(F)(F)F` [Example 19C, N-t-Butyl-octahydro-5[2R-hydroxy-3S-phenylmethyl-4-aza-5-oxo-6S-N(trifluoromethylcarbonyl)amino-7-p-fluorophenylsulfonyl-heptyl]-(3aR,7aS)-thieno[3,2-c]pyridine-(6S)-carboxamide]: the IC90 in the test on HIV (setting [1]) is 0.052 µM. In addition, on HIV-1 Protease, the inhibition at 0.00016 µg/mL was 85% and the IC50 was 0.00116 µM.

Consider `CC(=O)N[C@H](CCS(C)(=O)=O)C(=O)N[C@@H](CSc1ccccc1)[C@H](O)CN1C[C@H]2CCS[C@H]2C[C@H]1C(=O)NC(C)(C)C` [Example 15B, N-t-Butyl-octahydro-5[2R-hydroxy-3R-phenylthiomethyl-4-aza-5-oxo-6R-N(acetyl)amino-8-methylsulfonyl-octyl]-(3aR,7aS)-thieno[3,2-c]pyridine-(6S)-carboxamide], for which the IC90 in the test with HIV (setting [1]) is 7.63 µM. The IC50 at HIV-1 Protease (setting [2]) was 0.0135 µM.

As for `CC(C)(C)NC(=O)[C@@H]1C[C@@H]2SCC[C@@H]2CN1C[C@@H](O)[C@H](CSc1ccccc1)NC(=O)C[C@@H]1CCS(=O)(=O)C1` [Example 12, N-t-Butyl-octahydro-5[2R-hydroxy-3R-N(1',1'-dioxo-tetrahydrothiophen-3'R-ylmethylcarbonyl)amino-4-phenylthio-butyl]-(3aR,7aS)-thieno[3,2-c] pyridine-(6S)-carboxamide], in the test on HIV (concentration inhibiting 90% of the viral-induced toxicity), the IC90 turned out to be 0.096 µM. At HIV-1 Protease (setting [2]), the “Fluorescence Assay IC50” value is reported as 0.44 ng/mL.

For the compound `C[C@@H]1OCC[C@@H]1OC(=O)N[C@@H](CSc1ccccc1)[C@H](O)CN1C[C@H]2CCS[C@H]2C[C@H]1C(=O)NC(C)(C)C` [13B-26 mg sample], the IC90 in the test with HIV (setting [1]) was 0.09 µM. Besides, the inhibition at 0.00016 µg/mL on HIV-1 Protease was 71%.

For `CC(C)(C)NC(=O)[C@@H]1C[C@@H]2SCC[C@@H]2CN1C[C@@H](O)[C@H](Cc1ccccc1)NC(=O)[C@@H](CS(=O)(=O)c1ccc(F)cc1)NS(C)(=O)=O` [Example 19B, N-t-Butyl-octahydro-5[2R-hydroxy-3S-phenylmethyl-4-aza-5-oxo-6S-N(methylsulfonyl)amino-7-p-fluorophenylsulfonyl-heptyl]-(3aR,7aS)-thieno[3,2-c]pyridine-(6S)-carboxamide], in the test with HIV (setting [1]), the IC90 came out at 0.233 µM. In addition, at HIV-1 Protease (setting [2]), the IC50 was 0.000224 µM.

Regarding `CC(=O)N[C@H](CS(=O)(=O)c1ccc2ccccc2c1)C(=O)N[C@@H](Cc1ccccc1)[C@H](O)CN1C[C@H]2CCS[C@H]2C[C@H]1C(=O)NC(C)(C)C` [Example 28], the 90% effect concentration (IC90) with HIV (setting [1]) was determined as 0.0218 µM. Moreover, the IC50 on HIV-1 Protease is 0.00267 µM.

Consider `CC(=O)N[C@H](CS(=O)(=O)c1ccc(F)cc1)C(=O)N[C@@H](CSc1ccccc1)[C@H](O)CN1C[C@H]2CCS[C@H]2C[C@H]1C(=O)NC(C)(C)C` [Example 21B, N-t-Butyl-octahydro-5[2R-hydroxy-3R-phenylthiomethyl-4-aza-5oxo-6S-N(acetyl)amino-7-p-fluorophenylsulfonyl-heptyl]-(3aR,7aS)-thieno[3,2-c]pyridine-(6S)-carboxamide], for which, in the test with HIV (setting [1]), the IC90 is 0.078 µM. In addition, the IC50 on HIV-1 Protease (setting [2]) is 0.00183 µM.
